Test system: normal human lung fibroblasts
Test: mRNA expression after LPA induction, Affymetrix Human Gene ST arrays, fibroblasts (Table 4A)
Type: cell-based
Details: fibroblasts; 1 μM LPA; average of 3 experiments
Description: Changes in gene expression after 3 hours of LPA induction were profiled on Affymetrix Human Gene ST 2.0 microarrays; differentially expressed genes identified by ANOVA with FDR <0.05 and fold-change >1.2. Process networks associated with differentially expressed genes were defined using MetaCore. Changes in secreted protein expression after 24 hours of LPA induction were profiled on an aptamer-based proteomic platform (1129 proteins); differentially expressed proteins identified by t-test.
Total RNA was isolated from normal human lung fibroblasts, human bronchial epithelial cells, and human pulmonary alveolar epithelial cells treated for […] with LPA and/or LPAR1 inhibitor. Each treatment condition was assayed in triplicate. Samples were profiled on Affymetrix Human Gene ST Arrays 1.0 and/or 2.0 after preparation using the Ambion WT Expression Kit according to manufacturers' instructions.
Data normalization and all subsequent analyses were performed in Partek Genomics Suite (Partek, St. Louis, Mo.). Data were normalized using the Robust Multi-array Average (RMA) algorithm. Differentially expressed genes were identified by ANOVA with correction for multiple comparisons with p-value with FDR<0.05. A fold-change cut-off was not strictly applied, although the majority of the differentially expressed genes identified have fold-changes greater than 1.2. Genes were included if they were statistically significant for (1) LPA-induction and (2) response to treatment with an LPAR1 inhibitor.
In Tables 1-5 The differentially expressed secreted proteins set forth in Tables 1, 2, and 5 and the differentially expressed mRNAs set forth in Table 3 and 4 were identified by visual inspection of individual dot-plots.
For the gene and protein expression analysis primary fibroblasts (NHLF product #CC-2512 from Lonza group LTD) and primary epithelial cells (NHBE Product #CC-2540 from Lonza; HPAEpiC Product #3200 from Sciencell (USA, California)) were cultured as recommended by the manufacturer, except they were cultured on collagen coated plates. As part of the induction protocol cells were starved overnight in low (0.2 or 0.1% serum) or no serum (0%), prior to stimulation with LPA.

lysophosphatidic acid [LPA]
Effect of 1 μM LPA (fold-change), BIRC3 mRNA: 3.17 fold-change
Effect of 1 μM LPA (fold-change), CHIC2 mRNA: 2.36 fold-change
Effect of 1 μM LPA (fold-change), CNST mRNA: 2.26 fold-change
Effect of 1 μM LPA (fold-change), CTGF mRNA: 4.71 fold-change
Effect of 1 μM LPA (fold-change), CYR61 mRNA: 6.52 fold-change
Effect of 1 μM LPA (fold-change), DKK1 mRNA: 6.36 fold-change
Effect of 1 μM LPA (fold-change), DUSP1 mRNA: 2.76 fold-change
Effect of 1 μM LPA (fold-change), EFNB2 mRNA: 2.61 fold-change
Effect of 1 μM LPA (fold-change), GPR37 mRNA: 2.80 fold-change
Effect of 1 μM LPA (fold-change), HAS2 mRNA: 2.61 fold-change
Effect of 1 μM LPA (fold-change), HBEGF mRNA: 5.11 fold-change
Effect of 1 μM LPA (fold-change), IER3 mRNA: 2.94 fold-change
Effect of 1 μM LPA (fold-change), IL6 mRNA: 4.19 fold-change
Effect of 1 μM LPA (fold-change), KPRP mRNA: 4.31 fold-change
Effect of 1 μM LPA (fold-change), KRTAP1-5 mRNA: 6.49 fold-change
Effect of 1 μM LPA (fold-change), KRTAP4-12 mRNA: 3.23 fold-change
Effect of 1 μM LPA (fold-change), LIF mRNA: 5.15 fold-change
Effect of 1 μM LPA (fold-change), MCP-1/CCL2 mRNA: 5.58 fold-change
Effect of 1 μM LPA (fold-change), MIR218-1: 3.07 fold-change
Effect of 1 μM LPA (fold-change), PAI-1 mRNA: 2.28 fold-change
Effect of 1 μM LPA (fold-change), PDCD1LG2 mRNA: 2.52 fold-change
Effect of 1 μM LPA (fold-change), PTX3 mRNA: 2.34 fold-change
Effect of 1 μM LPA (fold-change), SERPINB2 mRNA: 2.44 fold-change
Effect of 1 μM LPA (fold-change), TNFAIP3 mRNA: 3.44 fold-change
Effect of 1 μM LPA (fold-change), TXNIP mRNA: −3.79 fold-change
Effect of 1 μM LPA (fold-change), UGCG mRNA: 2.41 fold-change
Effect of 1 μM LPA (fold-change), VGLL3 mRNA: 2.96 fold-change
